# Source: patent US8674096B2, “Substituted imidazo[1,5-a]quinoxalin-4-ones as phosphodiesterase 9 inhibitors” (priority 2009, dated 2014)
row,melting point,Structure (SMILES)
1,228 to 231 °C,Cc1cc2c(cc1C(=O)N1Cc3ccc(F)cc3C1)[nH]c(=O)c1cnc(C3CCCC3)n12
2,206 to 208 °C,Cc1cc2c(cc1C(=O)N1Cc3cccc(C)c3C1)[nH]c(=O)c1cnc(C3CCOCC3)n12.Cl
3,198 to 200 °C,Cc1cc2c(cc1C(=O)N1Cc3cccc(Cl)c3C1)[nH]c(=O)c1cnc(C3CCOCC3)n12.Cl
4,310 to 312 °C,Cc1cc2c(cc1C(=O)N1CCc3c(Cl)cccc3C1)[nH]c(=O)c1nnc(-c3sccc3C)n12
5,286 °C (dec.),CN1CCN(C(=O)c2ccc3c(c2)[nH]c(=O)c2nnc(-c4ccc(O)cc4)n23)CC1c1ccccc1 (stereo not shown)
6,288 to 290 °C,Cc1cc2c(cc1C(=O)N1CCc3cc(Cl)ccc31)[nH]c(=O)c1nnc(C(=O)C3CC3)n12.Cl
7,186 to 188 °C,CCCc1nnc2c(=O)[nH]c3cc(C(=O)N4CCN(c5ccccc5Cl)CC4)c(C)cc3n12
8,212 to 213 °C,Cc1cc2c(cc1C(=O)N1CCc3cccc(C(=O)O)c3C1)[nH]c(=O)c1cnc(C3CCOCC3)n12.Cl
9,225 °C (dec.),Cc1cc2c(cc1C(=O)N1Cc3cccc(N4CCOCC4)c3C1)[nH]c(=O)c1cnc(C3CCOCC3)n12.Cl
10,188 to 190 °C (dec.),Cc1cc2c(cc1C(=O)N1CCc3c(Cl)cc(Cl)cc3C1)[nH]c(=O)c1cnc(C3CCOCC3)n12.Cl
11,192 to 194 °C (dec.),Cc1cc2c(cc1C(=O)N1CCc3cnn(C)c3C1)[nH]c(=O)c1cnc(C3CCOCC3)n12
12,219 to 220 °C (dec.),Cc1cc2c(cc1C(=O)N1CCc3cc(Br)ccc31)[nH]c(=O)c1cnc(C3CCOCC3)n12.Cl
13,275 to 276 °C,O=C(c1ccc2c(c1)[nH]c(=O)c1nnc(C3CCOCC3)n12)N1CCOC(c2ccccc2)C1 (stereo not shown)
14,206 to 208 °C,Cc1cc2c(cc1C(=O)N1CCc3cc(Cl)ccc31)[nH]c(=O)c1cnc(C3CCCOC3)n12.Cl (stereo not shown)
15,283 °C (dec.),Cc1cc2c(cc1C(=O)N1Cc3cccc(C)c3C1)[nH]c(=O)c1cnc(C3CCCOC3)n12.Cl (stereo not shown)
16,204 to 206 °C,Cc1ccc2c(c1)CCN2C(=O)c1cc2[nH]c(=O)c3cnc(C4CCCOC4)n3c2cc1C.Cl (stereo not shown)
17,186 to 188 °C,Cc1cc2c(cc1C(=O)N1CCc3cc(F)ccc31)[nH]c(=O)c1cnc(C3CCOC3)n12.Cl (stereo not shown)
18,267 °C (dec.),Cc1cc2c(cc1C(=O)N1CCc3c(Cl)cccc3C1)[nH]c(=O)c1cnc(C3CCOCC3)n12
19,218 to 220 °C,Cc1cc2c(cc1C(=O)N1CCc3cc(Cl)ccc31)[nH]c(=O)c1nnc(C3CCCC3)n12.Cl
20,219 to 221 °C,Cc1cc2c(cc1C(=O)N1CCc3onc(-c4ccc(Cl)cc4)c3C1)[nH]c(=O)c1nnc(C3CCOC3)n12.Cl (stereo not shown)
21,207 to 209 °C,Cc1cc2c(cc1C(=O)N1CCc3cccnc31)[nH]c(=O)c1nnc(C3CCCC3)n12
22,203 to 205 °C,Cc1cc2c(cc1C(=O)N1Cc3cccc(F)c3C1)[nH]c(=O)c1cnc(C3CCOC3)n12.Cl (stereo not shown)
23,287 °C (dec.),Cc1cc2c(cc1C(=O)N1Cc3ccccc3C1)[nH]c(=O)c1nnc(C3CCOC(C)(C)C3)n12 (stereo not shown)
24,208 to 209 °C,Cc1cc2c(cc1C(=O)N1CCc3cc(C4CC4)cnc31)[nH]c(=O)c1nnc(C3CCCC3)n12
25,335 to 336 °C,Cc1cc2c(cc1C(=O)N1CCc3cc(Cl)ccc31)[nH]c(=O)c1nnc(C3CCOCC3)n12
26,316 to 319 °C,Cc1cc2c(cc1C(=O)N1CCc3cc(F)c(Cl)cc31)[nH]c(=O)c1nnc(C3CCOCC3)n12.Cl

row,melting point,Structure (SMILES)
1,370 °C (dec.),Cc1cc2c(cc1C(=O)N1CCc3cccnc31)[nH]c(=O)c1nnc(C3CCOCC3)n12
2,318 to 321 °C (dec.),Cl.O=C(c1cc2[nH]c(=O)c3cnc(C4CCOCC4)n3c2cc1C1CC1)N1CCc2cc(F)ccc21
3,236 °C (dec.),Cc1cc2c(cc1C(=O)N1Cc3ccccc3C1)[nH]c(=O)c1nnc(C3CCC3)n12.Cl
4,321 to 324 °C (dec.),COc1cc2c(cc1C(=O)N1CCc3cc(F)ccc31)[nH]c(=O)c1cnc(C3CCOCC3)n12.Cl
5,199 to 201 °C (dec.),COc1cc2c(cc1C(=O)N1Cc3ccccc3C1)[nH]c(=O)c1cnc(C3CCOCC3)n12.Cl
6,223 to 225 °C,Cc1cc2c(cc1C(=O)N1Cc3c(F)ccc(F)c3C1)[nH]c(=O)c1cnc(C3CCCOC3)n12 (stereo not shown)
7,322 °C (dec.),Cc1cc2c(cc1C(=O)N1Cc3ccccc3C1)[nH]c(=O)c1nnc(C3CCC(F)(F)CC3)n12
8,310 °C (dec.),Cc1cc2c(cc1C(=O)N1CCc3cccnc31)[nH]c(=O)c1nnc(C3CCC(F)(F)CC3)n12.Cl
9,335 °C (dec.),Cc1cc2c(cc1C(=O)N1Cc3ccccc3C1)[nH]c(=O)c1c(C)nc(C3CCOCC3)n12.Cl
10,198 °C (dec.),Cc1cc2c(cc1C(=O)N1CCc3cc(Cl)ccc31)[nH]c(=O)c1c(C)nc(C3CCOCC3)n12.Cl
11,297 °C (dec.),COc1cc2c(cc1C(=O)N1CCc3cc(C4CC4)cnc31)[nH]c(=O)c1cnc(C3CCOCC3)n12
12,310 °C (dec.),O=C(c1cc2[nH]c(=O)c3cnc(C4CCOCC4)n3c2cc1C1CC1)N1CCc2cc(C3CC3)cnc21
13,287 to 288 °C,Cc1cc2c(cc1C(=O)N1CCc3cc(F)c(F)cc31)[nH]c(=O)c1cnc(C3CCOCC3)n12.Cl
14,205 to 207 °C,Cl.O=C(c1cc2[nH]c(=O)c3cnc(C4CCOCC4)n3c2cc1C1CC1)N1Cc2cccc(F)c2C1
15,195 to 197 °C,COc1cc2c(cc1C(=O)N1Cc3cccc(F)c3C1)[nH]c(=O)c1cnc(C3CCOCC3)n12.Cl
16,314 °C (dec.),Cc1cc2c(cc1C(=O)N1CCc3cccnc31)[nH]c(=O)c1nnc(C3CCCOC3)n12 (stereo not shown)
17,212 to 215 °C,Cc1cc2c(cc1C(=O)N1CCc3ccccc3CC1)[nH]c(=O)c1nnc(C3CCOCC3)n12.Cl
18,318 °C (dec.),O=C(c1ccc2c(c1)[nH]c(=O)c1nnc(C3CCOCC3)n12)N1CCc2c(Cl)cccc2C1
19,216 to 219 °C,Cc1cc2c(cc1C(=O)N1CCc3sccc3C1)[nH]c(=O)c1nnc(C3CCOCC3)n12.Cl
20,223 to 225 °C,Cc1cc2c(cc1C(=O)N1CCc3c(cc(-c4ccccc4)n3C)C1)[nH]c(=O)c1nnc(C3CCOCC3)n12
21,219 to 221 °C (dec.),CN(C)CCOc1cc2c(cc1C(=O)N1CCc3cc(Cl)ccc31)[nH]c(=O)c1cnc(C3CCOCC3)n12
22,293 to 295 °C,CCCc1nnc2c(=O)[nH]c3cc(C(=O)N4CCc5c(Cl)cccc5C4)ccc3n12
23,297 °C (dec.),Cc1cc2c(cc1C(=O)N1CCc3cc(Cl)cnc31)[nH]c(=O)c1cnc(C3CCOCC3)n12.Cl
24,343 °C (dec.),Cc1cc2c(cc1C(=O)N1CCc3cc(Br)cnc31)[nH]c(=O)c1nnc(C3CCC(F)(F)CC3)n12
25,218 to 220 °C (dec.),Cc1cc2c(cc1C(=O)N1CCc3cc(Br)cnc31)[nH]c(=O)c1nnc(C3CCCOC3)n12 (stereo not shown)
26,210 to 211 °C (dec.),Cc1cc2c(cc1C(=O)N1CCc3cccnc31)[nH]c(=O)c1nnc(C3CCOC3)n12.Cl (stereo not shown)

row,melting point,Structure (SMILES)
1,293 °C (dec.),CCCc1nnc2c(=O)[nH]c3cc(C(=O)N4Cc5ccc(F)cc5C4)ccc3n12
2,279 °C (dec.),Cc1cc2c(cc1C(=O)N1CCc3cc(Cl)ccc31)[nH]c(=O)c1ncc(C3CCCC3)n12.Cl
3,215 to 218 °C,Cc1cc2c(cc1C(=O)N1CCc3cc(Cl)ccc31)[nH]c(=O)c1nnc(CC3CCSCC3)n12.Cl
4,200 to 202 °C,Cc1cc2c(cc1C(=O)N1CCc3cc(F)ccc31)[nH]c(=O)c1cnc([C@H]3CC[C@@H](O)CC3)n12.Cl
5,284 °C (dec.),COc1cc2c(cc1C(=O)N1CCc3cc(Cl)ccc31)[nH]c(=O)c1nnc(C3CCOCC3)n12.Cl
6,200 to 203 °C,Cc1cc2c(cc1C(=O)N1Cc3ccc(F)cc3C1)[nH]c(=O)c1cnc(C3CCOCC3)n12.Cl
7,172 to 174 °C,COCc1cc2c(cc1C(=O)N1Cc3c(F)ccc(F)c3C1)[nH]c(=O)c1cnc(C3CCOCC3)n12.Cl
8,234 to 235 °C,Cc1cc2c(cc1C(=O)N1CCc3cc(F)ccc31)[nH]c(=O)c1nnc(C3CC(F)(F)C3)n12
9,243 to 245 °C,Cc1cc2c(cc1C(=O)N1CCc3cc(Cl)ccc31)[nH]c(=O)c1nnc(C3CC(F)(F)C3)n12
10,316 °C (dec.),Cc1cc2c(cc1C(=O)N1Cc3ccccc3C1)[nH]c(=O)c1nnc(-c3ccccc3)n12
11,248 to 249 °C,Cc1cc2c(cc1C(=O)N1CCc3cc(Cl)ccc31)[nH]c(=O)c1nnc(-c3ccccc3)n12
12,235 to 237 °C,Cc1cc2c(cc1C(=O)N1CCc3cc(Cl)ccc31)[nH]c(=O)c1nnc([C@H]3CC[C@H](O)CC3)n12.Cl
13,271 °C (dec.),COc1cc2c(cn1)N(C(=O)c1cc3[nH]c(=O)c4nnc(C5CCOCC5)n4c3cc1C)CC2
14,264 to 266 °C (dec.),Cc1ccc2c(c1)CCN2C(=O)c1cc2[nH]c(=O)c3c(C)nc(C4CCOCC4)n3c2cc1C.Cl
15,290 °C (dec.),Cc1c(C(=O)N2CCc3cc(Cl)ccc32)ccc2c1[nH]c(=O)c1cnc(C3CCOCC3)n12
16,170 to 172 °C,Cc1cc2c(cc1C(=O)N1CCCc3ccccc3C1)[nH]c(=O)c1cnc(C3CCOCC3)n12.Cl
17,299 to 303 °C,COc1cc2c(cc1C(=O)N1Cc3ccccc3C1)[nH]c(=O)c1cnc(C3CCCCC3)n12.Cl
18,198 to 201 °C,COCc1cc2c(cc1C(=O)N1CCc3cc(Cl)ccc31)[nH]c(=O)c1nnc(C3(C)CCOCC3)n12.Cl
19,195 to 198 °C,COCc1cc2c(cc1C(=O)N1CCc3cc(F)c(F)cc31)[nH]c(=O)c1nnc(C3(C)CCOCC3)n12.Cl
20,282 to 284 °C,Cc1ccc2c(c1)CCN2C(=O)c1cc2[nH]c(=O)c3cnc(C4CCOCC4)n3c2cc1C.Cl
21,276 to 277 °C,Cc1cc2c(cc1C(=O)N1CCc3ccc(C(F)(F)F)cc31)[nH]c(=O)c1cnc(C3CCOCC3)n12.Cl
22,318 to 321 °C,Cc1cc2c(cc1C(=O)N1Cc3ccccc3C1)[nH]c(=O)c1nnc([C@H]3CC[C@H](C)CC3)n12
23,262 to 263 °C,Cc1cc2c(cc1C(=O)N1Cc3cccc(C)c3C1)[nH]c(=O)c1nnc(C3CCOCC3)n12
24,297 to 299 °C,Cc1cc2c(cc1C(=O)N1CCc3c(Cl)cccc3C1)[nH]c(=O)c1cnc(C3CCCC3)n12
